Experiments:
[1] = molecular target: cAMP-dependent protein kinase catalytic subunit beta (Homo sapiens, UniProt P22694); assay: Inhibition of PKA activity using kemptide as a substrate in presence of 50 uM ATP by mass spectrometry
[2] = molecular target: Protein kinase C alpha type (Homo sapiens, UniProt P17252); assay: Inhibition of human PKCalpha activity using neurogranin as a substrate in presence of 50 uM ATP by mass spectrometry

| IC50 [1] [µM] | IC50 [2] [µM] | Compound |
| --- | --- | --- |
| 23.6 | 0.095 | CN(C)CCCn1cc(NC(=O)Nc2nccc(-c3ccccc3)n2)c2ccccc21 |
| – | 2.68 | CCN(CC)CCCn1cc(NC(=O)Nc2cccc(-c3ccccc3)n2)c2ccccc21 |
| – | 4.81 | CCN(CC)CCCn1cc(NC(=O)Nc2ccnc(-c3ccccc3)n2)c2ccccc21 |
| – | 8.07 | CCN(CC)CCCn1cc(NC(=O)Nc2cncc(-c3ccccc3)n2)c2ccccc21 |

— ChEMBL document CHEMBL1764955, “The synthesis and evaluation of indolylureas as PKCα inhibitors” (Bioorg Med Chem, 2011)
